In patent US7521478B2, “Total synthesis of myriaporones” (Pharma Mar, S.A.U., priority 2002, dated 2009):

Tests used:
Format in all cases: cell-based
HeLa-APL = experiment: Inhibition of cell growth by colorimetric SRB assay, HELA-APL; details: Homo sapiens; for GI50: 48 h; for CC50: HELA-APL, 48 hours exposure, cell killing, read-out: LC50 (the source's name)
Text: (§1) The finality of these assays is to interrupt the growth of a “in vitro” tumor cell culture by means a continued exhibition of the cells to the sample to be testing.
(§2) Inhibition of Cell Growth by Colorimetric Assay.
(§3) A colorimetric type of assay, using sulforhodamine B (SRB) reaction has been adapted for a quantitative measurement of cell growth and viability (following the technique described by P. A. Skehan, et al., J. Natl. CancerInst. 1990, 82, 1107-1112).
(§4) This form of assay employs 96 well cell culture microplates of 9 mm diameter (T. Mosmann et al., J. of Immuological Methods 1983, 65, 55-63; G. T. Faircloth et al., J. of Tissue and Culture Methods 1988, 11, 201-205). Most of the cell lines are obtained from American Type Culture Collection (ATCC) derived from different human cancer types.
(§5) Cells are maintained in RPMI 1640 10% FBS, supplemented with 0.1 g/L penicillin and 0.1 g/L streptomycin sulfate and then incubated at 37° C., 5% CO2 and 98% humidity. For the experiments, cells were harvested from subconfluent cultures using trypsin and resuspended in fresh medium before plating.
(§6) Cells are seeded in 96 well microtiter plates, at 5×10^3 cells per well in aliquots of 195 μL medium, and they are allowed to attach to the plate surface by growing in drug free medium for 18 hours. Afterward, samples are added in aliquots of 5 μL in a ranging from 10 to 10^−8 μg/mL, dissolved in DMSO/EtOH/PBS (0.5:0.5:99). After 48 hours exposure, the antitumor effect are measured by the SRB methodology: cells are fixed by adding 50 μL of cold 50% (wt/vol) trichloroacetic acid (TCA) and incubated for 60 minutes at 4° C. Plates are washed with deionizer water and dried. One hundred μl of SRB solution (0.4% wt/vol in 1% acetic acid) is added to each microliter well and incubated for 10 minutes at room temperature. Unbound SRB is removed by washing with 1% acetic acid. Plates are air dried and bound stain is solubilized with Tris buffer. Optical densities are read on a automated spectrophotometric plate reader at a single wavelength of 490 nm.
(§7) The values for mean +/−SD of data from triplicate wells are calculated. Some parameters for cellular responses can be calculated: GI=growth inhibition, TGI=total growth inhibition (cytostatic effect) and LC=cell killing (cytotoxic effect).

HT-29 = experiment: Inhibition of cell growth by colorimetric SRB assay, HT-29; details: Homo sapiens, HT-29, 48 hours exposure; for CC50: cell killing, read-out: LC50 (the source's name); for IC (total growth inhibition): read-out: TGI
Text: as §1, §2, §3, §4, §5, §6, §7

DU-145 = experiment: Inhibition of cell growth by colorimetric SRB assay, DU-145; details: Homo sapiens, DU-145, 48 hours exposure; for CC50: cell killing, read-out: LC50 (the source's name); for IC (total growth inhibition): read-out: TGI
Text: as §1, §2, §3, §4, §5, §6, §7

LoVo = experiment: Inhibition of cell growth by colorimetric SRB assay, LOVO; details: Homo sapiens, LOVO, 48 hours exposure; for LC50: cell killing, read-out: LC50; for IC (total growth inhibition): read-out: TGI
Text: as §1, §2, §3, §4, §5, §6, §7

A-549 = experiment: Inhibition of cell growth by colorimetric SRB assay, A-549; details: Homo sapiens, A549, A-549, 48 hours exposure; for CC50: cell killing, read-out: LC50 (the source's name); for IC (total growth inhibition): read-out: TGI
Text: as §1, §2, §3, §4, §5, §6, §7

PANC-1 = experiment: Inhibition of cell growth by colorimetric SRB assay, PANC-1; details: Homo sapiens, PANC-1, 48 hours exposure; for CC50: cell killing, read-out: LC50 (the source's name); for IC (total growth inhibition): read-out: TGI
Text: as §1, §2, §3, §4, §5, §6, §7

K-562 = experiment: Inhibition of cell growth by colorimetric SRB assay, K-562; details: Homo sapiens, K562, K-562, 48 hours exposure; for CC50: cell killing, read-out: LC50 (the source's name); for IC (total growth inhibition): read-out: TGI
Text: as §1, §2, §3, §4, §5, §6, §7

SK-MEL-28 = experiment: Inhibition of cell growth by colorimetric SRB assay, MEL-28; details: Homo sapiens, SK-MEL-28, MEL-28, 48 hours exposure; for CC50: cell killing, read-out: LC50 (the source's name); for IC (total growth inhibition): read-out: TGI
Text: as §1, §2, §3, §4, §5, §6, §7

HeLa = experiment: Inhibition of cell growth by colorimetric SRB assay, HELA; details: Homo sapiens, HELA, 48 hours exposure; for CC50: cell killing, read-out: LC50 (the source's name); for IC (total growth inhibition): read-out: TGI
Text: as §1, §2, §3, §4, §5, §6, §7

LNCaP = experiment: Inhibition of cell growth by colorimetric SRB assay, LN-caP; details: Homo sapiens, LN-caP, 48 hours exposure; for CC50: cell killing, read-out: LC50 (the source's name); for IC (total growth inhibition): read-out: TGI
Text: as §1, §2, §3, §4, §5, §6, §7

LoVo-Dox = experiment: Inhibition of cell growth by colorimetric SRB assay, LOVO-DOX; details: Homo sapiens, LOVO-DOX, 48 hours exposure; for LC50 (concentration for 50% cell killing): read-out: LC50; for IC (total growth inhibition): read-out: TGI
Text: as §1, §2, §3, §4, §5, §6, §7

IGROV-ET = experiment: Inhibition of cell growth by colorimetric SRB assay, IGROV-ET; details: Homo sapiens, IGROV-ET, 48 hours exposure; for CC50: cell killing, read-out: LC50 (the source's name); for IC (total growth inhibition): read-out: TGI
Text: as §1, §2, §3, §4, §5, §6, §7

IGROV = experiment: Inhibition of cell growth by colorimetric SRB assay, IGROV; details: Homo sapiens, 48 hours exposure; for CC50: cell killing, read-out: LC50 (the source's name); for IC (total growth inhibition): read-out: TGI
Text: as §1, §2, §3, §4, §5, §6, §7

Row | Compound | GI50 (HeLa-APL) [µM] | CC50 (HeLa-APL) [µM] | GI50 (HT-29) [µM] | CC50 (HT-29) [µM] | IC (total growth inhibition) (HT-29) [µM] | GI50 (DU-145) [µM] | CC50 (DU-145) [µM] | IC (total growth inhibition) (DU-145) [µM] | GI50 (LoVo) [µM] | LC50 (LoVo) [µM] | IC (total growth inhibition) (LoVo) [µM] | GI50 (A-549) [µM] | CC50 (A-549) [µM] | IC (total growth inhibition) (A-549) [µM] | GI50 (PANC-1) [µM] | CC50 (PANC-1) [µM] | IC (total growth inhibition) (PANC-1) [µM] | GI50 (K-562) [µM] | CC50 (K-562) [µM] | IC (total growth inhibition) (K-562) [µM] | further results
1 | C/C=C\[C@H](C)[C@H]1OC1(C)[C@@H](O[Si](C)(C)C(C)(C)C)[C@@H](COC(C)=O)C(=O)[C@H](COC(C)=O)[C@@H](CC(=O)CC)OC(C)=O (stereo partly shown) [Compound 45] | 16.3 | 16.3 | 16.3 | 16.3 | 16.3 | 16.3 | 16.3 | 16.3 | 8.26 | 16.3 | 16.3 | 16.3 | 16.3 | 16.3 | 8.24 | 16.3 | 16.3 | 16.3 | 16.3 | 16.3 | GI50 (SK-MEL-28): 16.3 µM; CC50 (SK-MEL-28): 16.3 µM; IC (total growth inhibition) (SK-MEL-28): 16.3 µM; GI50 (HeLa): 16.3 µM; CC50 (HeLa): 16.3 µM; IC (total growth inhibition) (HeLa): 16.3 µM; GI50 (LNCaP): 8.34 µM; CC50 (LNCaP): 16.3 µM; IC (total growth inhibition) (LNCaP): 16.3 µM; GI50 (LoVo-Dox): 10.5 µM; LC50 (concentration for 50% cell killing) (LoVo-Dox): 16.3 µM; IC (total growth inhibition) (LoVo-Dox): 16.3 µM; GI50 (IGROV-ET): 15.8 µM; CC50 (IGROV-ET): 16.3 µM; IC (total growth inhibition) (IGROV-ET): 16.3 µM; GI50 (IGROV): 16.3 µM; CC50 (IGROV): 16.3 µM; IC (total growth inhibition) (IGROV): 16.3 µM
2 | C/C=C\[C@H](C)[C@H]1OC1(C)[C@@H](O[Si](C)(C)C(C)(C)C)[C@@H](COC(C)=O)C(=O)[C@H](CO)[C@@H](O)CC(=O)CC (stereo partly shown) [Compound 46] | 10.1 | 18.9 | 15 | 18.9 | 18.9 | 9.65 | 18.9 | 18.9 | 4.37 | 18.9 | 10 | 13.4 | 18.9 | 18.9 | 7.38 | 18.9 | 18.9 | 12 | 18.9 | 18.9 | GI50 (SK-MEL-28): 9.89 µM; CC50 (SK-MEL-28): 18.9 µM; IC (total growth inhibition) (SK-MEL-28): 18.9 µM; GI50 (HeLa): 8.81 µM; CC50 (HeLa): 18.9 µM; IC (total growth inhibition) (HeLa): 18.9 µM; GI50 (LNCaP): 5.24 µM; CC50 (LNCaP): 15.6 µM; IC (total growth inhibition) (LNCaP): 9.06 µM; GI50 (LoVo-Dox): 6.15 µM; LC50 (concentration for 50% cell killing) (LoVo-Dox): 18.9 µM; IC (total growth inhibition) (LoVo-Dox): 18.9 µM; GI50 (IGROV-ET): 7.39 µM; CC50 (IGROV-ET): 18.9 µM; IC (total growth inhibition) (IGROV-ET): 18.9 µM; GI50 (IGROV): 7.74 µM; CC50 (IGROV): 18.9 µM; IC (total growth inhibition) (IGROV): 18.9 µM
